# Measured values published in US6410485B1, “Saccharin-5-carbonyl derivatives with herbicidal effect” (BASF Aktiengesellschaft, priority 1999, dated 2002).
# Key:
# Assay type in all cases: in vivo
# Glycine max (GLXMA) = assay: greenhouse test, preemergence treatment, soybean; conditions: 100 = no emergence or complete destruction, 0 = no damage
# Source text: (§1) It was possible to show the herbicidal action of the saccharin-5-carbonyl derivatives of the formula I by means of greenhouse tests: The cultivation containers used were plastic pots containing loamy sand with approximately 3.0% humus as a substrate. The seeds of the test plants were sown separately according to species. In the case of preemergence treatment, the active compounds suspended or emulsified in water were applied directly after sowing by means of finely dispersing nozzles. The containers were lightly watered in order to promote germination and growth, and then covered with transparent plastic hoods until the plants had taken root. This covering causes uniform germination of the test plants if this is not adversely affected by the active compounds. The application rate for preemergence treatment was 0.125 or 0.0625 kg/ha of a.s. The plants were kept species-specifically at temperatures of 10-25° C. or 20-35° C. The test period extended over 2 to 4 weeks. During this time, the plants were tended, and their reaction to the individual treatments was assessed. Assessment was carried out on a scale from 0 to 100. In this case, 100 means no emergence of the plants or complete destruction at least of the above-ground parts and 0 means no damage or a normal course of growth. The plants used in the greenhouse tests were made up of the following species: [table]
# [1] = tested on: digitaria sanguinalis (DIGSA); assay: greenhouse test, preemergence treatment, large crabgrass; conditions: 100 = no emergence or complete destruction, 0 = no damage
# Source text: as §1
# [2] = tested on: Echinochloa crus galli (ECHCG); assay: greenhouse test, preemergence treatment, common barnyard grass; conditions: 100 = no emergence or complete destruction, 0 = no damage
# Source text: as §1
# [3] = tested on: weed grasses and broad-leaved plants; assay: greenhouse test, preemergence treatment, overall statement; conditions: 0.125 and 0.0625 kg/ha a.s.
# Source text: as §1, with “[table]” left out
# Setaria viridis (SETVI) = assay: greenhouse test, preemergence treatment, green foxtail; conditions: 100 = no emergence or complete destruction, 0 = no damage
# Source text: as §1
# [4] = tested on: Chenopodium album (CHEAL); assay: greenhouse test, preemergence treatment, lambsquarter; conditions: 100 = no emergence or complete destruction, 0 = no damage
# Source text: as §1
structure (smiles),measurement,setting,value
Cc1c(C(=O)C2=C(O)C3CCC(C3)C2=O)ccc2c1C(=O)N(C)S2(=O)=O (centres unmarked) [Compound 1.1],damage assessment on a scale from 0 to 100 (GLXMA),Glycine max (GLXMA); 0.0625 kg/ha of a.s.,0
same,damage assessment on a scale from 0 to 100 (GLXMA),Glycine max (GLXMA); 0.125 kg/ha of a.s.,0
same,damage assessment on a scale from 0 to 100 (DIGSA),[1]; 0.0625 kg/ha of a.s.,98
same,damage assessment on a scale from 0 to 100 (DIGSA),[1]; 0.125 kg/ha of a.s.,98
same,damage assessment on a scale from 0 to 100 (ECHCG),[2]; 0.0625 kg/ha of a.s.,98
same,damage assessment on a scale from 0 to 100 (ECHCG),[2]; 0.125 kg/ha of a.s.,98
same,control of weed grasses and broad-leaved plants,[3],very well controlled
same,damage assessment on a scale from 0 to 100 (SETVI),Setaria viridis (SETVI); 0.0625 kg/ha of a.s.,98
same,damage assessment on a scale from 0 to 100 (SETVI),Setaria viridis (SETVI); 0.125 kg/ha of a.s.,100
same,damage assessment on a scale from 0 to 100 (CHEAL),[4]; 0.0625 kg/ha of a.s.,98
same,damage assessment on a scale from 0 to 100 (CHEAL),[4]; 0.125 kg/ha of a.s.,98
